Reference: patent US6921759B2, “Aza- and polyaza-naphthalenyl carboxamides useful as HIV integrase inhibitors” (Merck & Co., Inc., priority 2000, dated 2005)

Assay: Oral bioavailability of jet-milled v. unmilled Na salt
Assay type: in vivo
Settings: jet-milled crystals (mean particle size about 3 to 5 microns) compared with unmilled (about 20 to 25 microns); orally administered formulations
Description: The Na salt has been jet-milled to provide crystals with a mean particle size of about 3 to 5 microns (v. about 20 to 25 microns for unmilled material) for use in orally administered formulations.

Question: For `O=C(NCc1ccc(F)cc1)c1nc(N2CCCCS2(=O)=O)c2cccnc2c1[O-].[Na+]` [Na salt, Sodium salt of 5-(1,1-Dioxido-1,2-thiazinan-2-yl)-N-(4-fluorobenzyl)-8-hydroxy-1,6-naphthyridine-7-carboxamide], which oral bioavailability is on record?
Answer: improved oral bioavailability over the unmilled salt
